This note sets out measurements from article PMC6162302, “A modified serine cycle in Escherichia coli coverts methanol and CO2 to two-carbon compounds” (Nature Communications, 2018).

This experiment deals with T1, Medh(CT4–1), variant of Mdh2 (Cupriavidus necator, UniProt F8GNE5).
T1 construct: engineered variant CT4-1 of Mdh2, N-terminal His-tag, expressed in E. coli BL21(DE3), His-Spin column purified
T1 sequence (F8GNE5 1-390): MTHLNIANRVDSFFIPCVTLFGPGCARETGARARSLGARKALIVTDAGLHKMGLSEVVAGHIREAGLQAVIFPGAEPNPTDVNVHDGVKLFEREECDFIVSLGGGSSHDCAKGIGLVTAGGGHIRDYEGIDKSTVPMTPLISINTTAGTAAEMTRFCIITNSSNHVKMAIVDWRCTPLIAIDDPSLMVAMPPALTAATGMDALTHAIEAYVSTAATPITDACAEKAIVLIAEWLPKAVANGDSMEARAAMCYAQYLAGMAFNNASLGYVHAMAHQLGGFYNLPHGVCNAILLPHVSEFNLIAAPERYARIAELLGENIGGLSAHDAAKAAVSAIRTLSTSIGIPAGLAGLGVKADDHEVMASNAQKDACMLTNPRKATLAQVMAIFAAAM
The experiment is described as follows: NADH formation at […] nm. The experiment is classed as biochemical. The following applies: 500 mM methanol, 5 mM MgCl2, 100 mM NaHCO3 pH 9.5, 37 °C.

Consider `NC(=O)c1ccc[n+]([C@@H]2O[C@H](COP(=O)(O)OP(=O)(O)OC[C@H]3O[C@@H](n4cnc5c(N)ncnc54)[C@H](O)[C@@H]3O)[C@@H](O)[C@H]2O)c1` [NAD], for which the “NADH formation at 340 nm” value was “oxidation of methanol to formaldehyde with the formation of NADH”.
